Earlier results, collected in US20150216993A1 (priority 2012, published 2015).

System: organophosphate poisoning
Details: in vivo

O/N=C/c1cc[n+](COC[n+]2ccc(/C=N/O)cc2)cc1 [obidoxime, obidoxime chloride]
window of time in which the therapeutic is effective: about 10 minutes
